According to US20240010726A1, “LFA-1 SIGNALLING MEDIATOR FOR USE IN CANCER THERAPY” (Universität Basel, priority 2020, published 2024):

Legend:
MC38-OVA tumor cells = test: Murine MC38-OVA tumor model, in vivo PD-1 blockade; settings: OVA immunized mice; 3 mM MgCl2 or NaCl i.t. every third day, 8 cycles; anti-PD-1 Ab or isotype 200 μg i.p. day 9, 12, 15
Procedure: FIG. 1: Intratumoral magnesium administration improves adaptive anti-tumor immunity. (a) Schematic of experimental design. B1/6 mice, either immunized with OVA or left untreated, were inoculated subcutaneously with MC38-OVA tumor cells bilaterally on the flanks. From day 7, injection of 3 mM NaCl solution was applied in left flank tumor, whereas 3 mM MgCl2 solution was injected in contralateral tumor. This regimen was repeated every third day for a total of 8 cycles. (b) Tumor growth curves in non-immunized mice (n=20) (left panel), and immunized mice (n=19) (right panel). (c) Tumor growth curves in ±CD8 depleted mice (n=6-17). Results were pooled from 2 independent experiments, with n=6-12 mice each. (d) Absolute numbers of tumor-infiltrating CD8^+ T cells. (e) Number of tumor-infiltrating CD8^+ T cells positive for Ki67 (left panel), Granzyme B (middle panel) and CD25 (right panel). (f) Cell number of tumor-infiltrating CD8^+ T cells expressing PD-1 and Tim3. (g) Schematic of experimental design. B1/6 mice, immunized with OVA, were inoculated subcutaneously with MC38-OVA tumor cells unilaterally on the flank. From day 5, intratumoral injections of either 3 mM NaCl or 3 mM MgCl2 were initiated, and repeated every third day for 8 cycles. Mice were additionally injected with 200 μg i.p. of isotype control (IgG2a) or anti-PD-1 Ab on day 9, 12, and 15. […]

PSMA+ PC3-PIP cell line = test: Cytotoxicity assay with anti-PSMA CAR T cells (IncuCyte); type: cell-based, human; settings: time-lapse killing; E:T 2:1; 0 mM vs 0.6 mM Mg^2+
Procedure: FIG. 3: Magnesium regulates LFA-1 mediated T cell activation and cytotoxicity as well BiTE- and CAR T-cell functionality. (a) Glycolytic switch of murine WT and LFA-1^-/- CTLs upon injection of anti-CD3/28 Ab in medium containing 1.2 mM Mg^2+ and 0 mM Mg^2+, presented as quantification of summarized data with n=4 mice. (b) Calcium flux in WT and LFA-1^-/- Jurkat T cells stimulated with anti-CD3 Ab in 1.2 mM and 0 mM Mg^2+ medium, respectively. Cells were loaded with Fluo4, and signal intensity as recorded by plate reader, was normalized to unstimulated baseline values. […] Quantified results of n=3 mice with 3 technical replicates each. […] The effector to target cell ratio was 3:1. Results are quantified of n=3 mice with 3 technical replicates each. (e) Representative CD11a (LFA-1) surface expression on human naïve and EM CD8 T cells, PHA T cell blasts and REP T cells, assessed by flow cytometry. […] The effector to target cell ratio was 1:1. Data is presented as quantified results of n=5 healthy donors (f, g, h), n=3 healthy donors with 2 technical replicates each or n=1 healthy donor with 4 technical replicates (j). […] Data is presented as quantified results of n=1 healthy donor with 4 technical replicates. […] (p) Abundance of IFNγ in cell culture supernatants corresponding to the conditions depicted in (o) at 24 hours was determined by ELISA (n=8, 3 independent experiments). […]

In the case of `[Mg+2]` [Mg^2+, Magnesium], the Host survival (MC38-OVA tumor cells) is reported as “significantly improved animal survival”, the Tumor growth (MC38-OVA tumor cells) is reported as “improving immune control significantly” and the “Cytolytic activity of CAR T cells against tumor target cells” value (PSMA+ PC3-PIP cell line) is reported as “impaired the cytolytic activity”.
